Test results taken from publication PMC12888861, “Antibacterial activity of enmetazobactam against Acinetobacter spp.: a molecular dissection of mechanism of action and resistance determinants” (Antimicrobial Agents and Chemotherapy, 2025).

What was measured:
[1] = tested on: carbapenem-susceptible A. baumannii isolates (n = 54); assay: MIC, broth microdilution (EUCAST), carbapenem-susceptible A. baumannii isolates; format: cell-based, Acinetobacter baumannii; conditions: for MIC: in combinations ETZ fixed at 8 mg/L
Excerpt: The bacterial strains used in this study comprised 208 clinical isolates from the Spanish National Acinetobacter spp. 2020 Multicenter Collection, which was previously characterized in detail by our research group, including whole-genome sequencing, phylogenetics studies, clonal dynamics, and resistance mechanisms ([2], [29]). Additionally, a collection of A. baumannii ATCC 17978 transformants coding the blaOXA-23, blaOXA-24/40, blaOXA-51, blaOXA-58, blaOXA-143, and blaOXA-201 genes, previously constructed and described by our group ([30]), was used to determine the activity of enmetazobactam against strains carrying the main CHDLs of A. baumannii.
The antimicrobial susceptibility of the 208 Acinetobacter spp. isolates was assessed using the broth microdilution method, as described in the European Committee on Antimicrobial Susceptibility Testing (EUCAST) v.15 guidelines (http://www.eucast.org/clinical_breakpoints). […] MICs for enmetazobactam alone were assessed as well. […] Subsequently, MIC testing was also conducted with a collection of A. baumannii ATCC 17978 transformants expressing clinically relevant OXA-like carbapenemase genes.
The A. baumannii ATCC 19606 strain was used as the reference strain in all susceptibility experiments, in duplicate assays. Antibiotics were purchased from Sigma-Aldrich, except enmetazobactam and durlobactam, which were obtained from Advanz Pharma and MedChemExpress, respectively.

[2] = tested on: A. baumannii ATCC 19606 cells; assay: Cell morphology assay, bright-field microscopy; format: cell-based, Acinetobacter baumannii; conditions: A. baumannii ATCC 19606, overnight exposure at 1× MIC
Experimental: In order to confirm the involvement of PBPs as targets of enmetazobactam, cell morphology assays involving exposure to enmetazobactam and sulbactam were performed following the methodology described in Supplementary materials and methods.
To confirm the involvement of PBPs as targets of enmetazobactam, the cellular morphology of A. baumannii ATCC 19606 reference strain was analyzed after exposure to the compound at different concentrations. Bright-field microscopy was used to monitor the cell morphology. […] For microscopic visualization, aliquots of each sample were obtained, stained with crystal violet solution and observed using an Olympus BX61 microscope (Olympus).
Changes in cell morphology were determined on the basis of alterations in septal integrity, abnormal elongation, spheroplast formation and filamentation, patterns previously associated with the selective inhibition of PBP1, PBP2 and PBP3 in Gram-negative bacilli. Specifically, PBP1 inhibition has been linked to cell lysis, PBP2 inhibition has been linked to spherification, and PBP3 inhibition to defective cell division and filament formation (1, 2). The results were qualitatively compared across different treatments to infer the potential selectivity of enmetazobactam for specific PBPs.

[3] = Acinetobacter baumannii, carbapenem-susceptible A. baumannii isolates (n = 54), ETZ fixed 8 mg/L in combinations

C[C@@H](O)[C@H]1C(=O)N2C(C(=O)O)=C(SCCN=CN)C[C@H]12 [imipenem]
MIC distribution 0.12 [1]: 61.1 | MIC ([1]; Acinetobacter baumannii, isolate Ab1, ST 164, ADC-6, OXA-91): 0.12 µg/mL | MIC ([1]; Acinetobacter baumannii, isolate Ab11, ST 239, ADC-2, OXA-51): 0.12 µg/mL | MIC ([1]; Acinetobacter baumannii, isolate Ab34, ST 2182, ADC-2, OXA-130): 0.25 µg/mL | MIC ([1]; Acinetobacter baumannii, isolate Ab38, ST 866, ADC-2, OXA-385): 0.25 µg/mL | MIC ([1]; Acinetobacter baumannii, isolate Ab40, ST 2176, ADC-2, OXA-64): 0.25 µg/mL | MIC ([1]; Acinetobacter baumannii, isolate Ab50, ST 2176, ADC-2, OXA-64): 0.25 µg/mL | MIC ([1]; Acinetobacter baumannii, isolate Ab57, ST 1470, ADC-58, OXA-106): 0.25 µg/mL | MIC ([1]; Acinetobacter baumannii, isolate Ab58, ST 6, ADC-2, OXA-94): 0.25 µg/mL | MIC ([1]; Acinetobacter baumannii, isolate Ab61, ST 1639, ADC-7, OXA-64): 0.12 µg/mL | MIC ([1]; Acinetobacter baumannii, isolate Ab62, ST 265, ADC-2, OXA-91): 0.25 µg/mL | MIC ([1]; Acinetobacter baumannii, isolate Ab67, ST 1, ADC-11, OXA-69): 0.25 µg/mL | MIC ([1]; Acinetobacter baumannii, isolate Ab79, ST 106, ADC-11, OXA-78): 0.12 µg/mL | MIC ([1]; Acinetobacter baumannii, isolate Ab80, ST 2182, ADC-6, OXA-208): 0.12 µg/mL | MIC ([1]; Acinetobacter baumannii, isolate Ab81, ST 25, ADC-79, OXA-64): 0.12 µg/mL | MIC ([1]; Acinetobacter baumannii, isolate Ab93, ST 25, ADC-79, OXA-64): 0.12 µg/mL | MIC ([1]; Acinetobacter baumannii, isolate Ab95, ST 582, ADC-5, OXA-317): 0.12 µg/mL | MIC ([1]; Acinetobacter baumannii, isolate Ab96, ST 582, ADC-5, OXA-317): 0.12 µg/mL | MIC ([1]; Acinetobacter baumannii, isolate Ab100, ST 145, ADC-58, OXA-343): 0.12 µg/mL | MIC ([1]; Acinetobacter baumannii, isolate Ab110, ST 1623, ADC-3, OXA-70): 0.25 µg/mL | MIC ([1]; Acinetobacter baumannii, isolate Ab112, ST 193, ADC-like, OXA-120): 0.12 µg/mL | MIC ([1]; Acinetobacter baumannii, isolate Ab124, ST 2176, ADC-2, OXA-64): 0.12 µg/mL | MIC ([1]; Acinetobacter baumannii, isolate Ab127, ST 2176, ADC-2, OXA-64): 0.12 µg/mL | MIC ([1]; Acinetobacter baumannii, isolate Ab128, ST 2176, ADC-2, OXA-64): 0.12 µg/mL | MIC ([1]; Acinetobacter baumannii, isolate Ab130, ST 32, ADC-79, OXA-100): 0.12 µg/mL | MIC ([1]; Acinetobacter baumannii, isolate Ab131, ST 687, ADC-like, OXA-208): 0.12 µg/mL | MIC ([1]; Acinetobacter baumannii, isolate Ab132, ST 1112, ADC-79, OXA-89): 0.12 µg/mL | MIC ([1]; Acinetobacter baumannii, isolate Ab136, ST 2183, ADC-like, OXA-66): 0.12 µg/mL | MIC ([1]; Acinetobacter baumannii, isolate Ab139, ST 54, ADC-like, OXA-365): 0.25 µg/mL | MIC ([1]; Acinetobacter baumannii, isolate Ab142, ST 1, ADC-like, OXA-69): 1 µg/mL | MIC ([1]; Acinetobacter baumannii, isolate Ab143, ST 1328, ADC-76, OXA-408): 0.12 µg/mL | MIC ([1]; Acinetobacter baumannii, isolate Ab149, ST 1112, ADC-6, OXA-407): 0.25 µg/mL | MIC ([1]; Acinetobacter baumannii, isolate Ab150, ST 2184, ADC-like, OXA-64): 0.25 µg/mL | MIC ([1]; Acinetobacter baumannii, isolate Ab152, ST 132, ADC-2, OXA-120): 0.25 µg/mL | MIC ([1]; Acinetobacter baumannii, isolate Ab158, ST 2034, ADC-2, OXA-217): ≤ 0.06 µg/mL | MIC ([1]; Acinetobacter baumannii, isolate Ab163, ST 132, ADC-2, OXA-120): ≤ 0.06 µg/mL | MIC ([1]; Acinetobacter baumannii, isolate Ab167, ST 1623, ADC-like, OXA-345): 0.12 µg/mL | MIC ([1]; Acinetobacter baumannii, isolate Ab168, ST 1470, ADC-75, OXA-402): 0.25 µg/mL | MIC ([1]; Acinetobacter baumannii, isolate Ab170, ST 2110, ADC-4, OXA-338): 0.12 µg/mL | MIC ([1]; Acinetobacter baumannii, isolate Ab172, ST 2185, ADC-5, OXA-217): ≤ 0.06 µg/mL | MIC ([1]; Acinetobacter baumannii, isolate Ab185, ST 2, ADC-26, OXA-66): 0.25 µg/mL | MIC ([1]; Acinetobacter baumannii, isolate Ab187, ST 105, ADC-2, OXA-430): ≤ 0.06 µg/mL | MIC ([1]; Acinetobacter baumannii, isolate Ab188, ST 203, ADC-6, OXA-217, PDC-1): 0.12 µg/mL | MIC ([1]; Acinetobacter baumannii, isolate Ab189, ST 1405, ADC-3, OXA-120): ≤ 0.06 µg/mL | MIC ([1]; Acinetobacter baumannii, isolate Ab190, ST 2186, ADC-6, OXA-413): 0.25 µg/mL | MIC ([1]; Acinetobacter baumannii, isolate Ab193, ST 164, ADC-6, OXA-91): ≤ 0.06 µg/mL | MIC ([1]; Acinetobacter baumannii, isolate Ab195, ST 1, ADC-11, OXA-69): 0.12 µg/mL | MIC ([1]; Acinetobacter baumannii, isolate Ab200, ST 1336, ADC-2, OXA-51): 0.12 µg/mL | MIC ([1]; Acinetobacter baumannii, isolate Ab202, ST 1, ADC-11, OXA-69): 0.12 µg/mL | MIC ([1]; Acinetobacter baumannii, isolate Ab203, ST 221, ADC-6, OXA-88): 0.12 µg/mL | MIC ([1]; Acinetobacter baumannii, isolate Ab206, ST 2187, ADC-58, OXA-69): 0.25 µg/mL | MIC ([1]; Acinetobacter baumannii, isolate Ab209): 0.25 µg/mL | MIC ([1]; Acinetobacter baumannii, isolate Ab213): 0.12 µg/mL | MIC ([1]; Acinetobacter baumannii, isolate Ab218): 0.25 µg/mL | MIC ([1]; Acinetobacter baumannii, isolate Ab220): 0.25 µg/mL | MIC50 [1, 3]: 0.12 µg/mL | MIC90 [1, 3]: 0.25 µg/mL | MIC distribution 0.25 ([1]; cumulative share of carbapenem-susceptible A. baumannii isolates (n = 54) at MIC 0.25 mg/L, ETZ fixed 8 mg/L in combinations): 98.1 | MIC distribution 0.5 ([1]; cumulative share of carbapenem-susceptible A. baumannii isolates (n = 54) at MIC 0.5 mg/L, ETZ fixed 8 mg/L in combinations): 98.1 | MIC distribution 1 ([1]; cumulative share of carbapenem-susceptible A. baumannii isolates (n = 54) at MIC 1 mg/L, ETZ fixed 8 mg/L in combinations): 100 | MIC distribution 2 ([1]; cumulative share of carbapenem-susceptible A. baumannii isolates (n = 54) at MIC 2 mg/L, ETZ fixed 8 mg/L in combinations): 100 | MIC distribution 4 ([1]; cumulative share of carbapenem-susceptible A. baumannii isolates (n = 54) at MIC 4 mg/L, ETZ fixed 8 mg/L in combinations): 100 | MIC distribution 8 ([1]; cumulative share of carbapenem-susceptible A. baumannii isolates (n = 54) at MIC 8 mg/L, ETZ fixed 8 mg/L in combinations): 100 | MIC distribution 16 ([1]; cumulative share of carbapenem-susceptible A. baumannii isolates (n = 54) at MIC 16 mg/L, ETZ fixed 8 mg/L in combinations): 100 | MIC distribution ≤0.06 ([1]; cumulative share of carbapenem-susceptible A. baumannii isolates (n = 54) at MIC ≤0.06 mg/L, ETZ fixed 8 mg/L in combinations): 11.1 | MIC distribution ≥32 ([1]; cumulative share of carbapenem-susceptible A. baumannii isolates (n = 54) at MIC ≥32 mg/L, ETZ fixed 8 mg/L in combinations): 100 | cell morphology [2]: rounded and spherical cells
